Patent US7279502B2, “Polyamine analog conjugates and quinone conjugates as therapies for cancers and prostate diseases” (Cellgate, Inc., priority 1999, dated 2007)
Read-outs that look alike come from different tables or passages of the source.

Legend:
[1] = test system: human prostate adenocarcinoma cell line PC-3; assay: MTT assay, quinones, PC-3; assay type: cell-based; conditions: read-out: ID50 PC-3
Experimental: (§1) Cell Culture: The human lung adenocarcinoma cell line, A549, and human prostatic cancer cell line, DUPRO, were a gift from Dr. M. Eileen Dolan, University of Chicago, Department of Medicine. A549 was grown in Ham's F-12K medium (Fisher Scientific, Itasca, Ill.) supplemented with 10% fetal bovine serum and 2 mM L-glutamine. DUPRO was grown in RPMI-1640 supplemented with 10% fetal bovine serum. The human colon carcinoma cell line, HT29, and the human breast carcinoma cell line, MCF7, were obtained from the American Type Culture Collection, Rockville, Md. HT29 cells were grown in McCoy's 5A medium (Gibco, BRL, Gaithersburg, Md.) supplemented with 10% fetal bovine serum. MCF7 cells were grown in Richter's Improved Modified Eagle's medium supplemented with 10% fetal bovine serum and 2.2 g/L sodium bicarbonate. The human prostate adenocarcinoma cell lines, LNCAP, PC-3 and DU145, were gifts from Dr. George Wilding, University of Wisconsin Comprehensive Cancer Center and the Department of Medicine, and were grown in Dulbecco's Modified Eagle's medium supplemented with a 5% fetal bovine serum. The malignant glioma cell line, U251MG NCI was obtained from the brain tumor tissue bank at the University of California, San Francisco Department of Neurosurgery, and was grown in Dulbecco's Modified Eagle's medium supplemented wth 10% fetal bovine serum. DUPRO, A549 and MCF7 cells were grown in 100 units/mL penicillin and 100 μg/mL streptomycin. HT29 and U251MG NCI cells were grown in 50 μg/mL gentamycin. LNCAP, PC-3 and DU145 cells were maintained in 1% antibiotic antimycotic solution (Sigma, St. Louis, Mo.). All cell cultures were maintained at 37° C. in 5% CO2/95% humidified air.
(§2) MTT assay. Exponentially growing monolayer cells were plated in 96 well plates at a density of 500 cells/well and allowed to grow for 24 h. Serially diluted drug solutions were added such that the final drug concentrations in the treatment media were between 0 and 35 μM. Cells were incubated with drug at either 4 hr or 72 hr. After 4 hr and 72 hr treatment, drugs were removed, fresh media (without) drug (100 uL) was added and cells were incubated for 6 days. After six days, 25 μL of a Dulbecco's phosphate-buffered saline solution containing 5 mg/mL of MTT (Thiazolyl blue) (Sigma) was added to each well and incubated for 4 h at 37° C. Then 100 μL of lysis buffer (20% sodium dodecyl sulfate, 50% N,N-dimethylformamide and 0.8% acetic acid, pH 4.7) was added to each well and incubated for an additional 22 h. A microplate reader (E max, Molecular Devices, Sunnyvale, Calif.) set at 570 nm was used to determine the optical density. Results were plotted as a ratio of the optical density in drug treated wells to the optical density in wells treated with vehicle alone. Plotting and estimation of ID50 values were accomplished with manufacturer supplied software. The data is presented below in Tables 3, 4, 5 and 6.

[2] = test system: human breast carcinoma cell line, MCF7; assay: MTT assay, quinones, MCF7; assay type: cell-based; conditions: Table 4, treatment time not given in cell, read-out: ID50 Breast MCF7
Experimental: as §1, §2

[3] = Table 3, treatment time not given in cell

| SMILES | IC50 [1, 3] [nM] | IC50 ([1]; Table 5, non-quinone structure) [nM] | IC50 [2] [µM] |
| --- | --- | --- | --- |
| O=C1C=C(OCCCCCNc2c3ccccc3nc3ccccc23)c2ccccc2C1=O [SL-11059, Acridine-quinone] | 4300 | – | – |
| N#Cc1ccc(OCCCCCCOC2=CC(=O)C(=O)c3ccccc32)cc1 [SL-11062] | 1710 | – | – |
| CN1CCN(c2ccc3nc(-c4ccc5nc(-c6ccc(O)cc6)[nH]c5c4)[nH]c3c2)CC1 [SL-11063] | – | > 31200 | – |
| O=C1C=C(OCCCCCCOC2=CC(=O)c3ccccc3C2=O)c2ccccc2C1=O [SL-11065] | 1400 | – | – |
| O=C1C=C(OCCCCCCOc2ccc(OC3OC(CO)C(O)C(O)C3O)cc2)c2ccccc2C1=O (stereo not shown) [SL-11066] | > 31200 | – | – |
| O=C1C=C(OCCCCCCOc2ccccc2)c2ccccc2C1=O [SL-11068] | 1500 | – | – |
| CN(C)c1cccc(OC(=O)CCCCOC2=CC(=O)C(=O)c3ccccc32)c1 [SL-11074] | 4600 | – | – |
| NCCCCCC(=O)OCCCCCCOC1=CC(=O)C(=O)c2ccccc21 [SL-11075] | 2000 | – | – |
| CCNC(=O)CCNC(=O)CCCNC(=O)CCNC(=O)CCCCOC1=CC(=O)C(=O)c2ccccc21 [SL-11085] | > 31200 | – | – |
| CCCCN(CC1=CC(=O)C(=O)c2ccccc21)C(C)=O [SL-11087] | 2400 | – | 4 |
| CCCCN(CC1=CC(=O)C(=O)c2ccccc21)C(=O)C(F)(F)F [SL-11088] | > 31200 | – | > 31.2 |
